According to patent US20230114674A1, “ISOINDOLINE DERIVATIVE, AND PHARMACEUTICAL COMPOSITION AND USE THEREOF” (KANGPU BIOPHARMACEUTICALS, LTD., priority 2020, published 2023):

How the values were obtained:
MM.1S myeloma cells [1] = test: Cell proliferation inhibition test by CTG (CellTiter-Glo) assay; type: cell-based; settings: Homo sapiens, MM1.S, 120 hours drug treatment, 4,000 cells/well, 384-well plate, read-out: MM.2S IC50
Method: Experimental Method for Cell Proliferation Inhibition Test by CTG Assay:
The proliferation inhibitory activity of the compounds in the MM.1S myeloma cell model was determined by CellTiter-Glo (CTG) Luminescent Cell Viability Assay (Promega). MM.1S cells (ATCC, Cat #CRL-2974) at exponential phase were resuspended in RPMI-1640 (Gibco, Cat #11875-093)+10% FBS+1% penicillin/streptomycin+2 mM Glutamax medium and counted using an automated cell counter (ViCellXR). According to the optimized cell plating density in the pre-experiments, 40 μl of cell suspension at a density of 100,000 cells/ml was plated in the corresponding wells of a 384-well plate (4,000 cells/well) to ensure that cells in the control group were at linear growth phase within the five-day experimental period. The plated 384-well plate was cultured in a 37° C., 5% CO2 incubator for 24 hours. On the day of administration, each compound was formulated into 10 mM stock solution with DMSO (Sigma, Cat #276855-1L) and the stock solution was further diluted with DMSO to 20 μM and 20 nM working solutions. Drug treatment of MM.1S cells started at a concentration of up to 100 nM and the drug was serial diluted 4-fold with 10 points, with three replicate wells. Nanoliter volumes of compound solutions were added to the corresponding wells of the 384-well plate according to the needed concentration in a non-contact spraying manner by an HPD300 microscale automated dispenser (Tecan). The final concentration of DMSO was 0.5%. After drug addition, the 384-well plate was cultured in a 37° C., 5% CO2 incubator for 120 hours. After five days of drug treatment, 25 μl of CTG reagent (Promega, Cat #G7573) was added to each well, and the plate was shaken on a plate shaker for 10 minutes to ensure that the cells were fully lysed, and then left to stand at room temperature for 10 minutes to ensure a sufficient reaction of CTG with the substrate and the generation of a stable luminescent signal. The signal is proportional to the amount of ATP in the cell lysate, i.e., the number of metabolically active cells. Chemiluminescence of the cells in the plate was detected by an EnSpire instrument. The reading of the cells at Day 0 was used as a control for cells at growth starting point and the reading of cells with 0.5% DMSO at Day 5 was used as a control for cells under growth. Cell proliferation inhibition curve was plotted using XLFit software and the IC50 value was calculated. Experiment results can be seen in Table 2.

MM.1S myeloma cells [2] = test: Cell proliferation inhibition test by MTS assay; type: cell-based; settings: Homo sapiens, MM1.S, 72 hours drug treatment, 15,000 cells/well, 96-well plate
Method: Experimental Method for Cell Proliferation Inhibition Test by MTS Assay:
Proliferating MM.1S myeloma cells (ATCC, Cat #CRL-2974) were resuspended in RPMI-640 medium (Gibco, Cat #A10491-01) and counted using an automated cell counter. The cell suspension was diluted to the needed density and 100 μl (15,000 cells) of the cell suspension was plated per well in a 96-well plate. The plate was cultured in a 37° C., 5% CO2 incubator for 24 hours. On the day of administration, each compound was formulated into 20 mM stock solution with DMSO (Sigma, Cat #D2650), diluted with a medium to the needed concentration, and then added to the corresponding wells for the cell proliferation inhibition test with a drug of 4-fold serial dilution with 10 points. The final concentration of DMSO was 0.5%. After drug addition, the 96-well plate was cultured in a 37° C., 5% CO2 incubator for 72 hours. Then, 20 μl of MTS (Promega, Cat #G3581) was added to each well and the plate was cultured for 2 hours in a 37° C., 5% CO2 incubator, and then the absorbance at 490 nm of each well was recorded using an Ensight instrument. The reading of the cells at Day 0 was used as a negative control and the reading of cells with 0.5% DMSO at Day-3 was used as a positive control. Cell proliferation inhibition curve was plotted using GraphPad Prism 5 software and the IC50 value was calculated. Experiment results can be seen in Table 1.

SMILES	IC50 (MM.1S myeloma cells [1]) [nM]	IC50 (MM.1S myeloma cells [2]) [nM]
N#Cc1ccc(N2CCN(Cc3ccc(COc4cccc5c4CN([C@H]4CCC(=O)NC4=O)C5=O)c(F)c3)CC2)c(F)c1Cl [CM-48]	0.0365	
COc1c(C#N)ccc(N2CCN(Cc3ccc(COc4cccc5c4CN([C@H]4CCC(=O)NC4=O)C5=O)c(F)c3)CC2)c1F [CM-49]	0.0606	
Nc1cccc2c1CN(C1CCC(=O)NC1=O)C2=O (stereo not shown) [Control 1, reference compound]	119	23.1
